According to ChEMBL document CHEMBL1221378, “Synthesis of cholestane glycosides bearing OSW-1 disaccharide or its 1-->4-linked analogue and their antitumor activities” (Bioorg Med Chem Lett, 2010):
pIC50: −log10 of the molar value.

Experiments:
Type in all cases: functional, cell-based
A2780 = experiment: Cytotoxicity against human A2780 cells after 72 hrs by MTT assay; conditions: A2780, 72 h
Bel-7402 = experiment: Cytotoxicity against human Bel7402 cells after 72 hrs by MTT assay; conditions: Bel-7402, 72 h
BGC-823 = experiment: Cytotoxicity against human BGC823 cells after 72 hrs by MTT assay; conditions: BGC-823, 72 h
A549 = experiment: Cytotoxicity against human A549 cells after 72 hrs by MTT assay; conditions: A549, 72 h
HCT-8 = experiment: Cytotoxicity against human HCT8 cells after 72 hrs by MTT assay; conditions: HCT-8, 72 h

| Structure (SMILES) | pIC50 (A2780) | pIC50 (Bel-7402) | pIC50 (BGC-823) | pIC50 (A549) | pIC50 (HCT-8) |
| --- | --- | --- | --- | --- | --- |
| COc1ccc(C(=O)O[C@H]2[C@H](O[C@@H]3CO[C@@H](O[C@@H](CC[C@@H](C)CO)[C@@H](C)[C@H]4[C@@H](O[C@@H]5OC[C@@H](O[C@@H]6OC[C@@H](O)[C@H](O)[C@H]6OC(=O)c6ccc(OC)cc6)[C@H](O)[C@H]5OC(C)=O)C[C@H]5[C@@H]6CC=C7C[C@@H](O)CC[C@]7(C)[C@H]6CC[C@]45C)[C@H](OC(C)=O)[C@H]3O)OC[C@@H](O)[C@@H]2O)cc1 | < 5.00 | < 5.00 | < 5.00 | < 5.00 | < 5.00 |
| CC(=O)O[C@H]1C(=O)[C@@]2(C)[C@H]([C@H](OC(=O)c3ccccc3)[C@]3(O)C[C@H](OC(=O)[C@H](O)[C@@H](NC(=O)c4ccccc4)c4ccccc4)C(C)=C1C3(C)C)[C@]1(OC(C)=O)CO[C@@H]1C[C@@H]2O [PACLITAXEL] | > 9.00 | 7.22 | > 9.00 | 7.80 | 7.29 |
| COc1ccc(C(=O)O[C@H]2[C@H](O[C@@H]3[C@@H](OC(C)=O)[C@H](O[C@H]4C[C@H]5[C@@H]6CC=C7C[C@@H](O)CC[C@]7(C)[C@H]6CC[C@]5(C)[C@H]4[C@H](C)C(=O)CC[C@@H](C)CO)OC[C@H]3O)OC[C@@H](O)[C@@H]2O)cc1 | 7.14 | 7.41 | 7.89 | 7.34 | 7.64 |
| COc1ccc(C(=O)O[C@H]2[C@H](O[C@@H]3CO[C@@H](O[C@H]4C[C@H]5[C@@H]6CC=C7C[C@@H](O)CC[C@]7(C)[C@H]6CC[C@]5(C)[C@H]4[C@H](C)C(=O)CC[C@@H](C)CO)[C@H](OC(C)=O)[C@H]3O)OC[C@@H](O)[C@@H]2O)cc1 | < 5.00 | < 5.00 | < 5.00 | < 5.00 | < 5.00 |
